From patent US10093629B2, “Heterocyclic compounds and their use as retinoid-related orphan receptor (ROR) gamma-T inhibitors” (Takeda Pharmaceutical Company Limited, priority 2014, dated 2018)

What was measured:
[1] = biological target: T1, RORγt (Homo sapiens, UniProt P51449); assay: Jurkat reporter test (human IL-17 ROR response element luciferase, RORγt vector); type: cell-based; details: Jurkat cells; for inhibition at 3 µM: Jurkat, test compound 3 μM, read-out: luminescence level inhibitory rate at test compound 3 μM
T1 sequence (P51449 1-497 isoform P51449-2): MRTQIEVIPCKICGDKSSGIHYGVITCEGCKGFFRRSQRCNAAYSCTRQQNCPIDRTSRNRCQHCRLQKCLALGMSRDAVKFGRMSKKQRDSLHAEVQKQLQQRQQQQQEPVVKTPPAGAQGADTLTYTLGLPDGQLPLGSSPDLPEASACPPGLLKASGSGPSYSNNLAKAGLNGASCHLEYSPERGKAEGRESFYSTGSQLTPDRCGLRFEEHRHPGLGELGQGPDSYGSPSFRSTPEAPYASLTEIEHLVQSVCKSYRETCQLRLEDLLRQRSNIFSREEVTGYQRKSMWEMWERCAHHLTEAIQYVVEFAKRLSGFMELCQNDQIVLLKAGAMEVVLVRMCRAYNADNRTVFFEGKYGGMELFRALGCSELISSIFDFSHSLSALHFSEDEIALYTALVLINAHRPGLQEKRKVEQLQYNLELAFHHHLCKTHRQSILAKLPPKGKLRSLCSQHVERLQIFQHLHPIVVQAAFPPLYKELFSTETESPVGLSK
Experimental: The Jurkat cells used for the reporter test were cultured in a culture medium (RPMI (Invitrogen), 10% FCS (AusGeneX), 100 U/mL penicillin, 100 μg/mL streptomycin). On the day of the test, 4×10^7 cells were recovered by a centrifugal operation (1000 rpm, 5 min.) and suspended in PBS (phosphate buffered saline) (Invitrogen). Thereafter, the cells were recovered again by a centrifugal operation, and suspended in 2 mL of R buffer (NEON transfection kit, Invitrogen). […] Gene transfer was performed by Electroporation apparatus (NEON, Invitrogen) under the conditions of pulse voltage 1350 V, interval 10 milliseconds, number of times 3. The cells after gene transfer were suspended in 40 mL of a reaction medium (RPMI, 10% Lipid reduced FCS (HyClone), 10 mM HEPES (pH 7.5), 100 U/mL penicillin, 100 μg/mL streptomycin, 5 μM lovastatin), and plated in a 96 well plate by 90 μL. A test compound diluted with the reaction medium was added by 10 μL, and the cells were cultured overnight in an incubator. Bright-Glo (Promega) was added by 100 μL, and the mixture was stirred at room temperature for 10 min, and the luminescence level was measured by Envision (PerkinElmer).

[2] = biological target: T1, RORγt; assay: RORγt binding test using fluorescent-labeled synthetic ligand (TR-FRET); details: test compound 1 μM; for inhibition at 1 µM: read-out: binding inhibitory rate of fluorescent-labeled synthetic ligand to RORγt at test compound 1 μM
Experimental: RORγt Binding Test using Fluorescent-Labeled Synthetic Ligand
The binding activity of the test compound to RORγt was measured by a time resolved fluorescence resonance energy transfer method (TR-FRET) utilizing histidine-tagged RORγt, fluorescent-labeled synthetic ligand and terbium-labeled anti-histidine tag antibody (Invitrogen). First, a test compound diluted with an assay buffer (20 mM Tris-HCl (pH 7.5), 100 mM NaCl, 1 mM DTT, 0.1% BSA) was added to a 384 well plate by 3 μL. Then, RORγt diluted with an assay buffer to 240 nM was added by 3 μL, after which fluorescent-labeled synthetic ligand diluted with the assay buffer to 12 μM was added by 3 μL, and the mixture was stood at room temperature for 20 min. Thereafter, a terbium-labeled anti-histidine tag antibody diluted with the assay buffer to 8 nM was added by 3 μL. The mixture was stood at room temperature for 20 min, and fluorescence intensity (excitation wavelength 320 nm, fluorescence wavelength 520 nm, delay time 100 microseconds) was measured by Envision (PerkinElmer).

[3] = biological target: T1, RORγt; assay: Cofactor recruitment test (Alpha Screen, biotinylated SRC-1 peptide); type: biochemical; details: test compound 1 μM; for inhibition at 1 µM: read-out: signal value inhibitory rate at test compound 1 μM
Experimental: Cofactor Recruitment Test
Cofactor recruitment test was performed by Alpha Screen (Histidine Detection Kit, PerkinElmer) method. First, a test compound was diluted with an assay buffer (50 mM Tris-HCl (pH 7.5), 50 mM KCl, 1 mM DTT, 0.1% BSA) and added to a 384 well plate by 5 μL. […] The mixture was stood in a dark place for 1 hr, and the signal value was measured by Envision (PerkinElmer).

[4] = tested on: IL-17 production in human blood; assay: Effect on IL-17 production in human blood; type: cell-based; details: 72 h; 10 μM test compound; human peripheral blood, IL-23 and Dynabeads stimulation, 3 days; read-out: percent inhibition at 10 μM (IL-17 production)
Experimental: Effect on IL-17 Production in Human Blood
The inhibitory effect of the test compound on IL-17 production in human blood was evaluated as follows. First, 150 μL of peripheral blood collected from healthy individuals using heparinized vacuum blood collection tubes was dispensed into each well of a 96-well plate (Corning), and 45 μL of RPMI 1640 medium (Gibco) containing 10% fetal bovine serum (FBS, Hyclone) and 30 μL of the test compound diluted with the medium were added to each well. The plate was then cultured for 30 min at 37° C. The cells were subsequently stimulated by adding 30 μL of 100 ng/mL human IL-23 (R&D) and 45 μL of Dynabeads Human (Invitrogen) to each well and culturing the plate for 3 days at 37° C. In wells without stimulation, 75 μL of RPMI 1640 medium containing 10% FBS was added instead of the IL-23 and Dynabeads solution. After culturing for 3 days, the culture supernatant was collected, and the amount of IL-17 in the supernatant was measured using an IL-17 ELISA kit (R&D).
The results (percent inhibition of IL-17 production with 10 μM of the test compound) measured by the above-mentioned method are shown in Table 8.

[5] = tested on: IL-17A gene expression; assay: Effect on IL-23-induced cytokine expression in mice; type: in vivo, mouse; details: 10 mg/kg oral, 30 min before and 8 hr after IL-23; ear of Balb/c mice; versus the negative control group
Experimental: Effect on IL-23-Induced Cytokine Expression in Mice
A mouse IL-23 solution (500 ng/10 μL, prepared by Takeda Pharmaceutical Company Limited) or PBS (10 μL, negative control group) was administered intradermally in the ear of Balb/c mice (Charles River Japan, male, 7 weeks old). Twenty-four hr after administration, the ear was resected under isoflurane anesthesia. The test compound was suspended in 0.5% methylcellulose and administered orally 30 min before and 8 hr after IL-23 administration.
RNA extraction from the ear tissue and quantitative PCR were performed as follows. Specifically, ear tissue 5 mm in diameter was punched from an area of the resected ear centering on the IL-23 injection site, and the tissue was immersed in RNAlater (QIAGEN) for at least 18 hr. The RNAlater-treated ear tissue was homogenized in 350 μL of RLT buffer (RNeasy mini kit, QIAGEN) and treated (55° C., 10 min) with Proteinase K (QIAGEN). Total RNA was then extracted according to the RNeasy mini kit protocol. The RNA thus obtained was then reverse transcribed into cDNA using the High-Capacity RNA-to-cDNA kit (Applied Biosystems), and the amount of each gene expressions was measured by real-time PCR (Viia7™, Applied Biosystems). The PCR buffer used was TaqMan Fast Advanced Master Mix (Applied Biosystems), and TaqMan Gene Expression Assays (Applied Biosystems) Mm00439618_m1 (IL-17A) and 4352341E (β-actin) were used for each gene detection. The IL-17A gene expression level was normalized to the β-actin gene expression level, and the percent inhibition of IL-17A gene expression with the test compound was then calculated.
The results (percent inhibition of IL-17A gene expression with oral administration of the test compound) measured by the above-mentioned method are shown in Table 9.

Row | SMILES | inhibition at 3 µM [1] [%] | inhibition at 1 µM [2] [%] | inhibition at 1 µM [3] [%] | luminescence level inhibitory rate at test compound 3 μM ([1]; 3 µM) [%] | binding inhibitory rate of fluorescent-labeled synthetic ligand to RORγt at test compound 1 μM ([2]; 1 µM) [%] | signal value inhibitory rate at test compound 1 μM ([3]; 1 µM) [%] | inhibition at 10 µM [4] [%] | percent inhibition of IL-17A gene expression [5] [%]
1 | CCOCC(C)(C)c1c(F)cc(NC(=O)[C@H]2c3ccc(OCC)cc3CCN2C(=O)[C@H]2C[C@@H](CC(=O)O)C2)cc1F [Example 18, (cis-3-(((1R)-6-ethoxy-1-((4-(1-ethoxy-2-methylpropan-2-yl)-3,5-difluorophenyl)carbamoyl)-3,4-dihydroisoquinolin-2(1H)-yl)carbonyl)cyclobutyl)acetic acid] | 97 | 101 | 70 | – | – | – | 80 | –
2 | COc1ccc2c(n1)CCN(C(=O)[C@H]1C[C@H](CC(=O)O)C1)[C@H]2C(=O)Nc1cc(F)c2c(c1)CCC2(C)C [Example 20, (trans-3-(((5R)-5-((7-fluoro-1,1-dimethyl-2,3-dihydro-1H-inden-5-yl)carbamoyl)-2-methoxy-7,8-dihydro-1,6-naphthyridin-6(5H)-yl)carbonyl)cyclobutyl)acetic acid] | – | – | – | – | – | – | – | 99
3 | COCc1ccc2c(c1)CCN(C(=O)[C@H]1C[C@H](CC(=O)O)C1)[C@H]2C(=O)Nc1cc(F)c2c(c1)CCC2(C)C [Example 24, (trans-3-(((1R)-1-((7-fluoro-1,1-dimethyl-2,3-dihydro-1H-inden-5-yl)carbamoyl)-6-(methoxymethyl)-3,4-dihydroisoquinolin-2(1H)-yl)carbonyl)cyclobutyl)acetic acid] | 101 | 101 | 80 | – | – | – | 92.7 | –
4 | COCc1ccc2c(c1)CCN(C(=O)[C@H]1C[C@@H](CC(=O)O)C1)[C@H]2C(=O)Nc1cc(F)c2c(c1)CCC2(C)C [Example 40-A, monopotassium (cis-3-(((1R)-1-((7-fluoro-1,1-dimethyl-2,3-dihydro-1H-inden-5-yl)carbamoyl)-6-(methoxymethyl)-3,4-dihydroisoquinolin-2(1H)-yl)carbonyl)cyclobutyl)acetate acetonitrile solvate] | – | – | – | 104 | 102 | 87 | – | –

More lines, main results first:

Row | inhibition at 3 µM [1] [%] | inhibition at 1 µM [2] [%] | inhibition at 1 µM [3] [%] | luminescence level inhibitory rate at test compound 3 μM ([1]; 3 µM) [%] | binding inhibitory rate of fluorescent-labeled synthetic ligand to RORγt at test compound 1 μM ([2]; 1 µM) [%] | signal value inhibitory rate at test compound 1 μM ([3]; 1 µM) [%] | SMILES | inhibition at 10 µM [4] [%] | percent inhibition of IL-17A gene expression [5] [%]
5 | 102 | 102 | 61 | – | – | – | COc1ccc2c(n1)CCN(C(=O)[C@H]1C[C@@H](CC(=O)OCc3oc(=O)oc3C)C1)[C@H]2C(=O)Nc1cc(F)c2c(c1)CCC2(C)C [Example 38, (5-methyl-2-oxo-1,3-dioxol-4-yl)methyl (cis-3-(((5R)-5-((7-fluoro-1,1-dimethyl-2,3-dihydro-1H-inden-5-yl)carbamoyl)-2-methoxy-7,8-dihydro-1,6-naphthyridin-6(5H)-yl)carbonyl)cyclobutyl)acetate] | – | –
6 | 103 | 101 | 63 | – | – | – | CCOC(=O)C[C@H]1C[C@@H](C(=O)N2CCc3nc(OC)ccc3[C@@H]2C(=O)Nc2cc(F)c3c(c2)CCC3(C)C)C1 [Example 39, ethyl (cis-3-(((5R)-5-((7-fluoro-1,1-dimethyl-2,3-dihydro-1H-inden-5-yl)carbamoyl)-2-methoxy-7,8-dihydro-1,6-naphthyridin-6(5H)-yl)carbonyl)cyclobutyl)acetate] | – | –
7 | 102 | 102 | 61 | – | – | – | COc1ccc2c(n1)CCN(C(=O)[C@H]1C[C@@H](C(=O)OCc3oc(=O)oc3C)C1)[C@H]2C(=O)Nc1cc(F)c2c(c1)CCC2(C)C [Example 44, (5-methyl-2-oxo-1,3-dioxol-4-yl)methyl cis-3-(((5R)-5-((7-fluoro-1,1-dimethyl-2,3-dihydro-1H-inden-5-yl)carbamoyl)-2-methoxy-7,8-dihydro-1,6-naphthyridin-6(5H)-yl)carbonyl)cyclobutanecarboxylate] | – | –
8 | 101 | 101 | 66 | – | – | – | COC(=O)C[C@H]1C[C@@H](C(=O)N2CCc3nc(OC)ccc3[C@@H]2C(=O)Nc2cc(F)c3c(c2)CCC3(C)C)C1 [Example 45, methyl (cis-3-(((5R)-5-((7-fluoro-1,1-dimethyl-2,3-dihydro-1H-inden-5-yl)carbamoyl)-2-methoxy-7,8-dihydro-1,6-naphthyridin-6(5H)-yl)carbonyl)cyclobutyl)acetate] | – | –
9 | 102 | 102 | 69 | – | – | – | COc1ccc2c(n1)CCN(C(=O)[C@H]1C[C@@H](C(=O)OC)C1)[C@H]2C(=O)Nc1cc(F)c2c(c1)CCC2(C)C [Example 46, methyl cis-3-(((5R)-5-((7-fluoro-1,1-dimethyl-2,3-dihydro-1H-inden-5-yl)carbamoyl)-2-methoxy-7,8-dihydro-1,6-naphthyridin-6(5H)-yl)carbonyl)cyclobutanecarboxylate] | – | –
